Our source for the T/C values is PubChem BioAssay AID180 (DTP/NCI, 2004).

As usually defined, the T/C is the ratio of treated to control.

“And” between values parts separate entries of the source, which are not always exact repeats. Equal entries are not always repeated.

This test relates to BDF1 mice, Adenocarcinoma 755 s.c., tumor weight T/C. As to the kind of experiment: NCI In Vivo Anticancer Drug Screen. Data for tumor model Adenocarcinoma 755 (subcutaneous) in B6D2F1 (BDF1) mice. The following applies: endpoint: mean tumor weight, higher = larger tumour. In short, it runs like this:
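Transplantable tumor implanted; mice dosed with compound or vehicle; survival or tumor size recorded; ratio of treated to vehicle control reported.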

Setting [1] is: dose: 30.0 mg/kg/injection, schedule: Q01DX011 (ip), vehicle: carboxymethylcellulose (CMC).
[2] abbreviates: dose: 60.0 mg/kg/injection, schedule: Q01DX011 (ip), vehicle: carboxymethylcellulose (CMC).
The mark [3] stands for this setting: dose: 15.0 mg/kg/injection, schedule: Q01DX011 (ip), vehicle: methylcellulose (MC).
Where [4] appears, read: dose: 31.0 mg/kg/injection, schedule: Q01DX011 (ip), vehicle: methylcellulose (MC).
Setting [5] is: dose: 62.0 mg/kg/injection, schedule: Q01DX011 (ip), vehicle: methylcellulose (MC).
The mark [6] stands for this setting: dose: 125.0 mg/kg/injection, schedule: Q01DX011 (ip), vehicle: methylcellulose (MC).
Setting [7] is: dose: 250.0 mg/kg/injection, schedule: Q01DX011 (ip), vehicle: methylcellulose (MC).
The mark [8] stands for this setting: dose: 25.0 mg/kg/injection, schedule: Q01DX011 (ip), vehicle: methylcellulose (MC).
Where [9] appears, read: dose: 50.0 mg/kg/injection, schedule: Q01DX011 (ip), vehicle: methylcellulose (MC).
The mark [10] stands for this setting: dose: 100.0 mg/kg/injection, schedule: Q01DX011 (ip), vehicle: methylcellulose (MC).

With `COc1ccc(/C=N/Nc2nc3c([nH]2)c(=O)n(C)c(=O)n3C)cc1`, the T/C is 108 % of control under setting [1]; 94 % of control under setting [2]; 64 % of control (dose: 480.0 mg/kg/injection, schedule: Q01DX011 (ip), vehicle: carboxymethylcellulose (CMC)).

On to `CCC(C)n1ncc2c(N(C)C)ncnc21` (centres undefined), for which the T/C was 54 % of control and 73 % of control (dose: 16.25 mg/kg/injection, schedule: Q01DX011 (ip), vehicle: saline); 42 % of control and 46 % of control (dose: 32.5 mg/kg/injection, schedule: Q01DX011 (ip), vehicle: saline); 6 % of control (dose: 65.0 mg/kg/injection, schedule: Q01DX011 (ip), vehicle: saline).

As for `CCCCNCC(C)C(=O)OC` (centres undefined), the T/C is 92 % of control under setting [3]; 93 % of control under setting [4]; 87 % of control under setting [5]; 104 % of control under setting [6]; 104 % of control under setting [7].

As to `CCC(C)C(N=C1N=CNC2=NC=NC12)C(=O)O` (centres undefined), the T/C is 108 % of control (dose: 12.0 mg/kg/injection, schedule: Q01DX011 (ip), vehicle: methylcellulose (MC)); 106 % of control under setting [8]; 80 % of control under setting [9]; 98 % of control under setting [10].

For the compound `Brc1ncc2[nH]cnc2n1`, the T/C runs as follows: under setting [8], 79 % of control; (dose: 75.0 mg/kg/injection, schedule: Q01DX011 (ip), vehicle: methylcellulose (MC)) 75 % of control.

With `Nc1nc(SCc2ccc([N+](=O)[O-])cc2)c2[nH]cnc2n1`, the T/C is 10 % of control (dose: 600.0 mg/kg/injection, schedule: Q01DX011 (ip), vehicle: carboxymethylcellulose (CMC)); 10 % of control (dose: 750.0 mg/kg/injection, schedule: Q01DX011 (ip), vehicle: carboxymethylcellulose (CMC)); 8 % of control (dose: 800.0 mg/kg/injection, schedule: Q01DX011 (ip), vehicle: carboxymethylcellulose (CMC)); 1 % of control and 5 % of control (dose: 900.0 mg/kg/injection, schedule: Q01DX011 (ip), vehicle: carboxymethylcellulose (CMC)); 6 % of control (dose: 1000.0 mg/kg/injection, schedule: Q01DX011 (ip), vehicle: carboxymethylcellulose (CMC)).

Turning to `CC(=O)OCC(=O)[C@@]1(O)CC[C@H]2[C@@H]3CCC4=CC(=O)C=C[C@]4(C)[C@H]3[C@@H](O)C[C@@]21C`, the T/C is, setting by setting: (dose: 20.0 mg/kg/injection, schedule: Q01DX011 (sc), vehicle: steriod suspending solution) 23 % of control and 26 % of control; (dose: 40.0 mg/kg/injection, schedule: Q01DX011 (sc), vehicle: steriod suspending solution) 24 % of control and 26 % of control; (dose: 67.5 mg/kg/injection, schedule: Q01DX011 (sc), vehicle: steriod suspending solution) 30 % of control; (dose: 80.0 mg/kg/injection, schedule: Q01DX011 (sc), vehicle: steriod suspending solution) 88 % of control; (dose: 160.0 mg/kg/injection, schedule: Q01DX011 (sc), vehicle: steriod suspending solution) 40 % of control.

For the compound `Cc1cnc(SCc2ccccc2Cl)nc1SCc1ccccc1Cl`, the T/C runs as follows: under setting [4], 81 % of control; under setting [5], 65 % of control.

For the compound `CS(=O)(=O)c1nc(N)nc2nc[nH]c12`, the T/C by setting is: (dose: 3.75 mg/kg/injection, schedule: Q01DX011 (ip), vehicle: carboxymethylcellulose (CMC)) 81 % of control; (dose: 7.5 mg/kg/injection, schedule: Q01DX011 (ip), vehicle: carboxymethylcellulose (CMC)) 93 % of control and 81 % of control; under setting [1], 5 % of control and 12 % of control.

With `CSc1ncc(Br)c(Nc2ccc(Br)cc2)n1`, the T/C by setting is: under setting [3], 94 % of control; under setting [4], 103 % of control; under setting [5], 123 % of control; under setting [6], 114 % of control; under setting [7], 86 % of control.

For `O=P(N1CCCCC1)(N1CC1)N1CC1`, the T/C was 68 % of control (dose: 1.8 mg/kg/injection, schedule: Q01DX011 (ip), vehicle: carboxymethylcellulose (CMC)); 44 % of control (dose: 1.8 mg/kg/injection, schedule: Q01DX011 (ip), vehicle: saline); 92 % of control (dose: 3.5 mg/kg/injection, schedule: Q01DX011 (ip), vehicle: carboxymethylcellulose (CMC)); 38 % of control (dose: 3.5 mg/kg/injection, schedule: Q01DX011 (ip), vehicle: saline); 15 % of control (dose: 7.0 mg/kg/injection, schedule: Q01DX011 (ip), vehicle: saline); 45 % of control (dose: 14.0 mg/kg/injection, schedule: Q01DX011 (ip), vehicle: carboxymethylcellulose (CMC)).

For `CCC(=O)c1cc2c(cc1CC)C(C)(C)CCC2(C)C`, the T/C (dose: 100.0 mg/kg/injection, schedule: Q01DX011 (ip), vehicle: carboxymethylcellulose (CMC)) was 53 % of control and 63 % of control.

In the case of `NC(=O)c1n[nH]nc1N=Nc1c(O)ccc2ccccc12`, the T/C (dose: 16.0 mg/kg/injection, schedule: Q01DX011 (ip), vehicle: carboxymethylcellulose (CMC)) was 85 % of control; the T/C (dose: 31.0 mg/kg/injection, schedule: Q01DX011 (ip), vehicle: carboxymethylcellulose (CMC)) was 120 % of control; the T/C (dose: 62.0 mg/kg/injection, schedule: Q01DX011 (ip), vehicle: carboxymethylcellulose (CMC)) was 204 % of control.

In the case of `CC(=O)Oc1ccc2c(c1)CC[C@@H]1[C@@H]2CC[C@@]2(C)[C@H]1CC[C@]2(C)OC(C)=O`, the T/C is 76 % of control (dose: 31.0 mg/kg/injection, schedule: Q01DX011 (sc), vehicle: steriod suspending solution); 64 % of control (dose: 62.5 mg/kg/injection, schedule: Q01DX011 (sc), vehicle: steriod suspending solution); 71 % of control (dose: 125.0 mg/kg/injection, schedule: Q01DX011 (sc), vehicle: steriod suspending solution); 44 % of control (dose: 250.0 mg/kg/injection, schedule: Q01DX011 (sc), vehicle: steriod suspending solution).

Regarding `CNc1ncnc2c1ncn2C1CC(O)C(CO)O1` (centres undefined), the T/C runs as follows: (dose: 60.0 mg/kg/injection, schedule: Q01DX011 (ip), vehicle: saline) 92 % of control; (dose: 120.0 mg/kg/injection, schedule: Q01DX011 (ip), vehicle: saline) 94 % of control.

`O=C(C1C(c2ccccc2)N1Cc1ccccc1)C1C(c2ccccc2)N1Cc1ccccc1` (centres undefined): the T/C reads like this: under setting [8], 47 % of control; under setting [9], 77 % of control; under setting [10], 66 % of control.

On to `O=S1(=O)OCc2ccccc21`, for which the T/C is, setting by setting: (dose: 27.5 mg/kg/injection, schedule: Q01DX011 (ip), vehicle: carboxymethylcellulose (CMC)) 113 % of control; (dose: 27.5 mg/kg/injection, schedule: Q01DX011 (ip), vehicle: methylcellulose (MC)) 118 % of control; (dose: 55.0 mg/kg/injection, schedule: Q01DX011 (ip), vehicle: carboxymethylcellulose (CMC)) 68 % of control; (dose: 55.0 mg/kg/injection, schedule: Q01DX011 (ip), vehicle: methylcellulose (MC)) 98 % of control; (dose: 110.0 mg/kg/injection, schedule: Q01DX011 (ip), vehicle: methylcellulose (MC)) 17 % of control.

As for `CCOc1ccccc1Nc1cc(Cl)nc(N)n1`, the T/C by setting is: under setting [3], 96 % of control; under setting [4], 66 % of control; under setting [5], 70 % of control; under setting [6], 95 % of control; under setting [7], 70 % of control.

For the compound `CC(=O)Nc1nc(Cl)c2ncn(C3CCCO3)c2n1` (centres undefined), the T/C is 106 % of control under setting [1]; 38 % of control under setting [2]; 19 % of control and 42 % of control (dose: 240.0 mg/kg/injection, schedule: Q01DX011 (ip), vehicle: carboxymethylcellulose (CMC)).
